Here are results for two compounds from US4959368A, “Therapeutic agent for neurological diseases” (Mitsui Petrochemical Industries Ltd., priority 1986, dated 1990).

Series [1] relates to human neuroblastoma cell line GOTO. Put plainly: Activity on neuroblastoma cell line GOTO (cell number, number and length of neurites). The series is classed as cell-based. As to conditions: for Number of cells (mean ± S.E.): control 12.30 ± 1.48. In outline:
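GOTO cells were cultured 1–2 days at 37 °C, 5% CO2, then switched to serum-free RPMI/MEM (1:1) with compounds in PBS at various concentrations for 24 h. Living cells were counted by erythrosine exclusion (3–6 dishes); neurite number and length per cell were measured from photographs.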

Series [2] shares this test system. Description: Activity on cell line GOTO (simple method). The series is classed as cell-based. Conditions: Table 2 GOTO Run No. 1; 10 μg/ml; control 8.4. The protocol: The biological activities in vitro of the compounds of formula (I) on cells of the nervous system were tested. The cells tested were human neuroblastoma cell line GOTO [see Sekiguchi, M., Oota, T., Sakakibara, K., Inui, N. & Fujii, G., Japan. J. Exp. Med., 49, 67-83 (1979)], and neuroblastoma cell line NB-1 [see Miyake, S., Shimo, Y., Kitamura, T., Nojyo, Y., Nakamura, T., Imkashuku, S. and Abe, T., The Autonomic Nervous System, 10, 115-120 (1973)], and mouse neuroblastoma cell line neuro-2a (Dainippon Pharmaceutical Co., Ltd.) which have been established as the cells of the nervous system. The above neuve cells were grown in an incubator at 37° C. in the presence of 5% carbon dioxide gas exponentially, and then cultivated for a certain period of time together with the compounds of formula (I).
A culture medium [composed of 45% of RPMI 1640 medium, 45% modified Eagle's medium (MEM) and 10% of fetal calf serum (FCS) and containing penicillin G sodium (100 units/ml) and streptomycin sulfate (100 microgram/ml)] containing neurobalstoma cell line GOTO in the logarithmic growth period was poured in an amount of 2 ml each into polystyrene dishes (35 mm; made by Corning Co.) so that the cell concentration was 2 to 6×10^4 cells per dish, and the cells were cultured for 1 to 2 days in a carbon dioxide gas incubator containing 5% of carbon dioxide gas in air at 37° C. Then, the culture fluid was removed, and 2 ml of a fresh serum-free culture fluid (consisting of 50% of RPMI medium and 50% of MEM medium and containing penicillin G sodium and streptomycin sulfate in the same amounts as above) was added. At the same time, a presterilized PBS solution (phosphate buffered saline) of each of the test compounds in various concentrations was added to each of the dishes. After culturing for 24 hours, the number of living cells was counted. Furthermore, the culture was photographed, and from the photos, the number and length of neurites per cell were measured. The numer of living cells was counted for 3 to 6 dishes by resistance to staining with erythrosine dye. The number and length of the neurites were measured with regard to 6 photos (more than 200 cells per photo).
As a simple method of evaluation, the number of cells have neurites with a length equal to, or larger than, the long diameter of the cell was divided by the total number of cells.

Series [3] deals with mouse neuroblastoma cell line neuro-2a. Put plainly: Activity on neuro-2a, cells with outgrown neurites. The series is classed as cell-based. A digest of the protocol: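 Mouse neuro-2a cells in DMEM with FCS exposed to compounds for 24 h (up to 6 concentrations, triplicate runs), glutaraldehyde-fixed and methylene blue-stained. Proportion of cells bearing a neurite at least twice the cell's long diameter counted microscopically over ≥200 cells.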

In the next series the test system is mice. Description: Acute toxicity, mouse. The series is classed as in vivo. Conditions: 24 hours; for Number of dead animals/number of test animals: Table 7, 1000 mg/kg p.o.; for Presumed LD50: Table 7, p.o. The protocol: The acute toxicity of the compounds of the invention was examined by the following method.
Male ddy-strain 5-week old mice and male Wistar-strain 8 week old rats, five per group, were used as experimental animals. Each of the compounds was dissolved in saline and administered perorally, and the toxicity of the compound was assessed 24 hours after the administration.

Setting [4] is: Table 1 Run No. 2, 1 μg/ml, control 2.06 ± 0.60.
Where [5] appears, read: Table 1 Run No. 2, 1 μg/ml, control 55.00 ± 37.26.
Setting [6] is: Table 1 Run No. 2, 10 μg/ml, control 2.06 ± 0.60.
Where [7] appears, read: Table 1 Run No. 2, 10 μg/ml, control 55.00 ± 37.26.

`CN1C(=O)Cc2cnc(N3CCNCC3)nc21` [Compound 408]: the “Number of neurites/cell (mean ± S.D.)” value in series [1] (setting [4]) was 2.11 ± 0.65 neurites/cell; in series [1] (setting [6]), 2.17 ± 0.66 neurites/cell. Moreover, the “Number of cells (mean ± S.E.)” value was 17.52 ± 2.57 × 10^4 /dish in series [1] (Table 1 Run No. 2, 1 μg/ml) and 13.07 ± 0.80 × 10^4 /dish in series [1] (Table 1 Run No. 2, 10 μg/ml). Also, the “Length of neurites (mean ± S.D.)” value in series [1] (setting [5]) is 66.09 ± 36.49 μm/cell; in series [1] (setting [7]), 69.33 ± 40.68 μm/cell. Besides, the “Average of the proportions” value in series [2] came out at 25.33%. Besides, the “Cells having neurites with a length at least twice the long diameter of cell/total number of cells” value in series [3] (Table 3 Run No. 3, 0.01 mM, control 3.9 ± 0.3) was 7.9 ± 1.8%; in series [3] (Table 3 Run No. 3, 0.03 mM, control 3.9 ± 0.3) it was 13.0 ± 1.2%; in series [3] (Table 3 Run No. 3, 0.05 mM, control 3.9 ± 0.3), 23.0 ± 1.7%; in series [3] (Table 3 Run No. 3, 0.1 mM, control 3.9 ± 0.3) it was 51.2 ± 1.5%; in series [3] (Table 3 Run No. 4, 0.05 mM, control 3.1 ± 0.2), 16.8 ± 2.7%; in series [3] (Table 3 Run No. 4, 0.1 mM, control 3.1 ± 0.2), 33.5 ± 2.7%. Moreover, the “Cells having neurites with a length at least twice the long diameter of cell/total number of cells” value in series [3] (Table 3 Run No. 4, 0.2 mM, control 3.1 ± 0.2) turned out to be 44.6 ± 3.1%; in series [3] (Table 3 Run No. 7, 0.01 mM, control 2.5 ± 0.7) it was 6.2 ± 0.9%; in series [3] (Table 3 Run No. 7, 0.1 mM, control 2.5 ± 0.7), 25.0 ± 2.7%; in series [3] (Table 3 Run No. 7, 0.2 mM, control 2.5 ± 0.7) it was 44.5 ± 2.9%; in series [3] (Table 3 first Run No. 5, 0.05 mM, no control given), 12.8 ± 1.8%; in series [3] (Table 3 first Run No. 5, 0.1 mM, no control given), 23.5 ± 2.5%. Moreover, the “Number of dead animals/number of test animals” value in the series with mice (1000 mg/kg) is given as 0/5. The “Presumed LD50” value in the series on mice is given as > 1000 mg/kg p.o.
`CN1Cc2nc(N3CCNCC3)ncc2C1=O` [Compound 604]: the “Length of neurites (mean ± S.D.)” value in series [1] (Table 1, Run No. 6 by footnote, 1 μg/ml, control 42.48 ± 19.64, all *P <0.01) came to 58.88 ± 22.72 μm/cell; in series [1] (setting [5]) it was 76.30 ± 51.49 μm/cell; in series [1] (setting [7]), 72.06 ± 42.79 μm/cell. In addition, the “Number of neurites/cell (mean ± S.D.)” value in series [1] (Table 1, second control group (Run No. 6 by footnote), 1 μg/ml, control 1.79 ± 0.80) is reported as 2.23 ± 0.81 neurites/cell; in series [1] (setting [4]) it was 2.29 ± 0.77 neurites/cell; in series [1] (setting [6]), 2.27 ± 0.62 neurites/cell. Besides, the “Number of cells (mean ± S.E.)” value is 14.41 ± 2.98 × 10^4 /dish in series [1] (Table 1 Run No. 2, 1 μg/ml) and 11.85 ± 1.36 × 10^4 /dish in series [1] (Table 1 Run No. 2, 10 μg/ml). Besides, in series [2], the “Average of the proportions” value was 21.30%. Moreover, the “Cells having neurites with a length at least twice the long diameter of cell/total number of cells” value in series [3] (Table 3 Run No. 3, 0.3 mM, control 3.9 ± 0.3) was found to be 8.6 ± 0.9%; in series [3] (Table 3 Run No. 3, 1 mM, control 3.9 ± 0.3), 10.7 ± 1.3%. Also, in the series with mice, the “Number of dead animals/number of test animals” value is on record as 0/5. The “Presumed LD50” value in the series on mice (1440 min) was > 1000 mg/kg p.o.
